Source: patent US20120034613A1, “Apparatus and Method for Testing Relationships Between Gene Expression and Physical Appearance of Skin” (NSE Products, Inc., priority 2010, published 2012)

Test system: EpidermFT™ Skin Model (EFT-400) full thickness skin cultures
Experiment: Affymetrix GeneChip HG U133 Plus 2.0 microarray global gene expression, agent-exposed vs untreated skin cultures
Assay type: cell-based, human
Conditions: Salicin 0.5% vs Untreated Control, 24 hr treatment

OCc1ccccc1O[C@@H]1O[C@H](CO)[C@@H](O)[C@H](O)[C@H]1O [Salicin, 2-(Hydroxymethyl)phenyl β-D-glucospyranoside]
Direction UGCGL2 (218801_at): up | Direction UST (205139_s_at): up | Direction WIPI1 (203827_at): up | Direction XPO1 (235927_at): up | Direction ZFAND5 (217649_at): up | Direction ZFP36L1 (211965_at): up | Direction ZNF281 (228785_at): up | Direction ZNF331 (219228_at): up | Direction ZNF697 (227080_at): up | Fold change ABHD2 (205566_at): 2.508 | Fold change ABHD2 (221815_at): 2.348 | Fold change ABHD2 (225337_at): 2.704 | Fold change ADAMTS5 (235368_at): 2.751 | Fold change ADAMTS6 (1570351_at): 2.37 | Fold change ADCYAP1 (230237_at): 2.573 | Fold change AHI1 (220841_s_at): 2.322 | Fold change AHI1 (221569_at): 2.667 | Fold change AKR1C1 (1562102_at): 2.331 | Fold change AKT3 (212607_at): 2.622 | Fold change AKT3 (212609_s_at): 2.3 | Fold change AKT3 (222880_at): 2.365 | Fold change AKT3 (224229_s_at): 2.751 | Fold change ALG9 (228817_at): 2.321 | Fold change ANKRD28 (213035_at): 2.361 | Fold change ANKRD28 (229307_at): 2.421 | Fold change ARMC8 (1555281_x_at): 2.299 | Fold change ARNT2 (202986_at): 2.361 | Fold change ATF3 (1554980_a_at): 2.623 | Fold change ATP2A3 (207522_s_at): 2.434 | Fold change BAG2 (209406_at): 2.774 | Fold change BCL2L11 (1558143_a_at): 2.347 | Fold change BNC2 (220272_at): 2.471 | Fold change BNC2 (235723_at): 2.707 | Fold change C1GALT1C1 (238989_at): 2.327 | Fold change C1orf67 /// DNAH14 (242283_at): 2.614 | Fold change C13orf33 (227058_at): 2.621 | Fold change CABLES1 (225532_at): 2.633 | Fold change CARD16 (1552701_a_at): 2.363 | Fold change CCR1 (205098_at): 2.474 | Fold change CDCP1 (1554110_at): 2.44 | Fold change CDR2 (209501_at): 2.488 | Fold change CHST2 (203921_at): 2.332 | Fold change CLGN (205830_at): 2.486 | Fold change CNOT3 (203239_s_at): 2.466 | Fold change CPM (241765_at): 2.574 | Fold change CPM (243403_x_at): 2.436 | Fold change CREM (207630_s_at): 2.309 | Fold change CUL4B (202213_s_at): 2.538 | Fold change CXCL1 (204470_at): 2.363 | Fold change CYP7B1 (207386_at): 2.782 | Fold change CYR61 (210764_s_at): 2.692 | Fold change DENND3 (212975_at): 2.471 | Fold change DENND5B (228551_at): 2.474 | Fold change DGKI (206806_at): 2.74 | Fold change DNAJB9 (202842_s_at): 2.613 | Fold change DNAJB9 (1554462_a_at): 2.666 | Fold change DNAJC10 (221781_s_at): 2.508 | Fold change DNAJC10 (221782_at): 2.553 | Fold change DOCK4 (205003_at): 2.383 | Fold change DOCK5 (230206_at): 2.653 | Fold change DOCK5 (230263_s_at): 2.362 | Fold change DOK6 (236290_at): 2.316 | Fold change DSEL (232825_s_at): 2.821 | Fold change DUSP4 (204015_s_at): 2.668 | Fold change DZIP1 (204557_s_at): 2.653 | Fold change EIF2AK3 (218696_at): 2.305 | Fold change ELL2 (214446_at): 2.557 | Fold change ELTD1 (219134_at): 2.637 | Fold change ENPP1 (205066_s_at): 2.414 | Fold change ENTPD7 (220153_at): 2.395 | Fold change EPS8 (202609_at): 2.334 | Fold change EREG (205767_at): 2.487 | Fold change ERO1LB (220012_at): 2.376 | Fold change FADS1 (208963_x_at): 2.411 | Fold change FADS1 (208964_s_at): 2.638 | Fold change FAM20A (226804_at): 2.437 | Fold change FAM107B (223058_at): 2.544 | Fold change FAM107B (223059_s_at): 2.476 | Fold change FAR2 (220615_s_at): 2.497 | Fold change FAT4 (219427_at): 2.428 | Fold change FEM1B (212374_at): 2.726 | Fold change FGF7 (1555103_s_at): 2.35 | Fold change FGF7 /// KGFLP1 /// KGFLP2 (1554741_s_at): 2.506 | Fold change FHOD3 (218980_at): 2.607 | Fold change FKBP11 (219117_s_at): 2.431 | Fold change FKBP11 (219118_at): 2.422 | Fold change FMN2 (1555471_a_at): 2.355 | Fold change FN1 (214701_s_at): 2.436 | Fold change FN1 (214702_at): 2.71 | Fold change FOXJ3 (217310_s_at): 2.327 | Fold change FPR1 (205119_s_at): 2.402 | Fold change GAS1 (204457_s_at): 2.783 | Fold change GCLM (203925_at): 2.646 | Fold change GCLM (236140_at): 2.667 | Fold change GEM (204472_at): 2.52 | Fold change GFPT1 (226886_at): 2.512 | Fold change GFPT2 (205100_at): 2.3 | Fold change GLIPR1 (204222_s_at): 2.366 | Fold change GRAMD1A (224807_at): 2.363 | Fold change GRAMD1B (212906_at): 2.401 | Fold change GUCY1A3 (221942_s_at): 2.594 | Fold change GUCY1A3 (229530_at): 2.498 | Fold change HERC3 (1554290_at): 2.372 | Fold change HEY1 (44783_s_at): 2.372 | Fold change HIST1H2AB /// HIST1H2AE (214469_at): 2.52 | Fold change HIST1H2AD /// HIST1H3A /// HIST1H3B /// HIST1H3C /// HIST1H3D /// HIST1H3E /// HIST1H3F /// HIST1H3G /// HIST1H3H /// HIST1H3I /// HIST1H3J (214472_at): 2.608 | Fold change HIST2H2AA3 /// HIST2H2AA4 (214290_s_at): 2.42 | Fold change HK2 (222305_at): 2.329 | Fold change HOXB2 (205453_at): 2.404 | Fold change HSD17B2 (204818_at): 2.766 | Fold change HSPA13 (202557_at): 2.665 | Fold change ID2 /// ID2B (213931_at): 2.802 | Fold change IGFBP5 (211958_at): 2.712
